Activity calls are given as the source filed them.

Assay [1] deals with T1, High affinity choline transporter 1 (Homo sapiens, UniProt Q9GZV3).
T1 sequence (Q9GZV3 whole entry): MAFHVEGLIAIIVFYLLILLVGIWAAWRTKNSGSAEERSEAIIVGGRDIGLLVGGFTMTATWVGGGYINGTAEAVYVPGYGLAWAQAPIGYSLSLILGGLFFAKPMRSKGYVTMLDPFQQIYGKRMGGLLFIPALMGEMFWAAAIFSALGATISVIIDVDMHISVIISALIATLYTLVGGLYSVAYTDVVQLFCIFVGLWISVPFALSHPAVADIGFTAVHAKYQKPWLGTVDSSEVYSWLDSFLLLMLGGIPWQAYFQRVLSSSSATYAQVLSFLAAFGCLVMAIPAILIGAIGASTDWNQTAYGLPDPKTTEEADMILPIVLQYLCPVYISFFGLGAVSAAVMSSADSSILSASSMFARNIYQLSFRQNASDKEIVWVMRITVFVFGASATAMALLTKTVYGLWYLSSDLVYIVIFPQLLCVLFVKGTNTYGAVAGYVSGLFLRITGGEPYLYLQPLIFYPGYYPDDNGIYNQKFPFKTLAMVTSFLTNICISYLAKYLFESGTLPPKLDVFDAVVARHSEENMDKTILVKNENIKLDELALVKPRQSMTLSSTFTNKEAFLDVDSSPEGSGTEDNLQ
Briefly: CHT inhibitors, dose response, cell-based, 5-point CRC, membrane potential dye (AID 504840). Format: functional.

Assay [2] relates to MDCK. Briefly: antiviral activity against H1N1 influenza, dose response, cell-based, strain KY136 (AID 540257). Format: functional. As to conditions: Canis lupus familiaris.
Assay [3] has as its target FAD-linked sulfhydryl oxidase ALR (Homo sapiens, UniProt P55789). Briefly: inhibitors of human ALR sulfhydryl oxidase, dose response, biochemical, H2O2 detection, luminescence, cherry-pick (AID 493248).
Assay [4] deals with T2, Hexokinase-1 (Homo sapiens, UniProt P19367).
T2 sequence (P19367 whole entry): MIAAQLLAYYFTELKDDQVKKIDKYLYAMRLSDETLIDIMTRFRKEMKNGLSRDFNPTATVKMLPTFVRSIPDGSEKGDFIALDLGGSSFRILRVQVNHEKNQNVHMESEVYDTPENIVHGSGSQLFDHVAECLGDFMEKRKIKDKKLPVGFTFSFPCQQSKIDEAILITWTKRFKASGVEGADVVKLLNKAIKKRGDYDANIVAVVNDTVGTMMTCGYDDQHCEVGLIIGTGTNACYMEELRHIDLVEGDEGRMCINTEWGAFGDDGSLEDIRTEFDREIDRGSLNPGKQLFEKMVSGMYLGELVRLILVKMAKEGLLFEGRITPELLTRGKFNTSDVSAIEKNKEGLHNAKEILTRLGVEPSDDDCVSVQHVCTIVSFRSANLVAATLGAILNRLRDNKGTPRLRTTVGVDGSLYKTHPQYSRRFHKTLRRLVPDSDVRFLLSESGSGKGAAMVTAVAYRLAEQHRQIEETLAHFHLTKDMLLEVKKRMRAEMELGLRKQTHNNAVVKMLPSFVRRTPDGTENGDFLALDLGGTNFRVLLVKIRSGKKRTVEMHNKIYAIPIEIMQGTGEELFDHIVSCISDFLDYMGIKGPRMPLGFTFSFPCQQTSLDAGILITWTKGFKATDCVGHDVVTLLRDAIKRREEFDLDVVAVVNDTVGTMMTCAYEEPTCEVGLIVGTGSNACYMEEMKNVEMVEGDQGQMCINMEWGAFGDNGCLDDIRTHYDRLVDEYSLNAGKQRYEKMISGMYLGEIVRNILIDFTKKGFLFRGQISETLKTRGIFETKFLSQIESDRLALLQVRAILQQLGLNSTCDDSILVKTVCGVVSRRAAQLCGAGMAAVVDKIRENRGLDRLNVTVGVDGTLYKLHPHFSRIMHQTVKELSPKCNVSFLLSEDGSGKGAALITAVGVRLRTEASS
Kind of assay: SAR analysis of small molecule inhibitors of hexokinase domain containing I (HKDC1) in the hexokinase 1 selectivity assay. [Related pubchem assays (depositor defined):AID493160, AID493190]. The assay is classed as functional.

Assay [5] has as its target T3, Hexokinase HKDC1 (Homo sapiens, UniProt Q2TB90).
T3 sequence (Q2TB90 whole entry): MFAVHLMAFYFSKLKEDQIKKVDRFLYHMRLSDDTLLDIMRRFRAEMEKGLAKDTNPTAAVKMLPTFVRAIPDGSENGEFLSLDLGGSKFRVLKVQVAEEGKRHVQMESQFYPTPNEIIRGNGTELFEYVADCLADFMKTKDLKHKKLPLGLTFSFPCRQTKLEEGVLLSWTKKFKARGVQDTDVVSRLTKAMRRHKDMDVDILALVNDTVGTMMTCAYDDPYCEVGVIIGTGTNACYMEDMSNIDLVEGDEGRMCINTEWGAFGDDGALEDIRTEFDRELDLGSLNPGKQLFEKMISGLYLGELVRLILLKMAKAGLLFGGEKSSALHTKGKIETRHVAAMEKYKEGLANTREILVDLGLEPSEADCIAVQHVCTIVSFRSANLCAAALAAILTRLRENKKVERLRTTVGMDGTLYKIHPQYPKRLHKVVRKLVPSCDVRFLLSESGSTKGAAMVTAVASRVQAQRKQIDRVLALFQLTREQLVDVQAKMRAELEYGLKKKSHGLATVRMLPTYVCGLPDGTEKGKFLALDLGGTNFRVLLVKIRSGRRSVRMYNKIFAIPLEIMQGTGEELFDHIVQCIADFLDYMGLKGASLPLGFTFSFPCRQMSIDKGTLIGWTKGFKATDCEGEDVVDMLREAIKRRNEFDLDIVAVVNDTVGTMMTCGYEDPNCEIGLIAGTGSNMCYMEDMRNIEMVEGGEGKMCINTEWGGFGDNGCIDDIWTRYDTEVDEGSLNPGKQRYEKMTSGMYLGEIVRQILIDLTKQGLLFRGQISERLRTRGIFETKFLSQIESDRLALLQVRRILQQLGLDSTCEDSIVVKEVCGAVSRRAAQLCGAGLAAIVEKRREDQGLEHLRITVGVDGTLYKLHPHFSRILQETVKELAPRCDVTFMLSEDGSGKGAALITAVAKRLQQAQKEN
Kind of assay: SAR analysis of small molecule inhibitors of hexokinase domain containing I (HKDC1). [Related pubchem assays (depositor defined):AID493160, AID493190]. The assay is classed as functional.

The target of assay [6] is T4, Heat shock factor protein 1 (Mus musculus, UniProt P38532).
T4 sequence (P38532 whole entry): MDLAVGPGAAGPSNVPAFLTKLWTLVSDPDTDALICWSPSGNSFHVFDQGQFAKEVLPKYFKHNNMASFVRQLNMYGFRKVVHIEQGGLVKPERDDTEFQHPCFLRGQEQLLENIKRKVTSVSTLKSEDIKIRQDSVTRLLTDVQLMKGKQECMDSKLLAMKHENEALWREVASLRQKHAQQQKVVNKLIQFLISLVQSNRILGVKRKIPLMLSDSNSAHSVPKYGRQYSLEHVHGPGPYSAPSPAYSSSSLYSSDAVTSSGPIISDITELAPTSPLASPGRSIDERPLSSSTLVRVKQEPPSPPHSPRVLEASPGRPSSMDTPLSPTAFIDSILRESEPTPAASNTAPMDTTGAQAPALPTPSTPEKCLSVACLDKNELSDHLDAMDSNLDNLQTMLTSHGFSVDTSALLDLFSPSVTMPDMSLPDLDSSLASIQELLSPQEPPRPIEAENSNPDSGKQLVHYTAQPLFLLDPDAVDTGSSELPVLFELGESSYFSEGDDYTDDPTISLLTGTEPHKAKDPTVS
Briefly: inhibition of MG132-induced HSE-luciferase signal, confirmation, cell-based, NIH3T3, luminescence, dose retest (AID 2382).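 Note: NIH3T3 fibroblasts with HSF1-driven luciferase reporter stressed by proteasome inhibitor MG132; luminescence from HSF1-driven luciferase expression after 8 hours of MG132 stress.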 The assay is classed as functional.

For assay [7], the target named is Luciferin 4-monooxygenase (Photuris pensylvanica, UniProt Q27757). Kind of assay: firefly luciferase enzyme inhibitors, dose response, counter-screen for HSF-1 reporter inhibitor project, biochemical, Cell Titer Glo, luminescence, cherry-picks (AID 588847).
Chain of Luciferin 4-monooxygenase (Q27757 whole entry): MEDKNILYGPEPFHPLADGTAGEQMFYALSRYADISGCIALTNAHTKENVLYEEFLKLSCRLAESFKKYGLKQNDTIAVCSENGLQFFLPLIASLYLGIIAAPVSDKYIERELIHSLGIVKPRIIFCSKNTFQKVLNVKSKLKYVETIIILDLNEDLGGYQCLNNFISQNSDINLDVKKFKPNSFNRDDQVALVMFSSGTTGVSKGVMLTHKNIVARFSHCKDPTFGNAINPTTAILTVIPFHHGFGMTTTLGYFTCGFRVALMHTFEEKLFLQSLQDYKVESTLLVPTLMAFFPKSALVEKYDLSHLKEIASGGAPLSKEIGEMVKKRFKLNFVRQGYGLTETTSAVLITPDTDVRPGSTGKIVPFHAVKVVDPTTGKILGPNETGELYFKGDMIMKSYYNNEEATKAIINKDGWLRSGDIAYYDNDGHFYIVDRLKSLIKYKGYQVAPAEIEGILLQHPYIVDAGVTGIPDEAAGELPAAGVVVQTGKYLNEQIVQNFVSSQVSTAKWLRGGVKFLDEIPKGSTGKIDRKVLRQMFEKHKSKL
Assay [8] has as its target Guanyl-specific ribonuclease T1 (Aspergillus oryzae (strain ATCC 42149 / RIB 40), UniProt P00651). Briefly: RNase T1 inhibitors, dose response, counter-screen for TPT1 inhibitor project, biochemical, fluorescence polarization, 1536-well (AID 2167). A general note: Counterscreens check selectivity or assay interference.
The target in assay [9] is Likely tRNA 2'-phosphotransferase (Candida albicans (strain SC5314 / ATCC MYA-2876) (Yeast), UniProt Q5A7N4). Kind of assay: TPT1 tRNA phosphotransferase inhibitors, dose response, biochemical, fluorescence polarization (AID 2160). A general note: Polarisation of emitted light reports the rotation of a fluorescent probe.
Chain of Likely tRNA 2'-phosphotransferase (Q5A7N4 whole entry): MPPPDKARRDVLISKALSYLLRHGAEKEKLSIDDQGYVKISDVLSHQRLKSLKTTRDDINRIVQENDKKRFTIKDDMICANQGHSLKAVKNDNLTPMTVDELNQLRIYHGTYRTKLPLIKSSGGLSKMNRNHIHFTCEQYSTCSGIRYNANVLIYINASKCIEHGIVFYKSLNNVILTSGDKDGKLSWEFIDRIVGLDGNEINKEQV
Assay [10] deals with Beta-adrenergic receptor kinase 1 (Homo sapiens, UniProt P25098). Kind of assay: aptamer displacement from bead-bound GRK2 – biochemical, cherry pick 1, bead flow cytometry, dose response (AID 504500).
Chain of Beta-adrenergic receptor kinase 1 (P25098 whole entry): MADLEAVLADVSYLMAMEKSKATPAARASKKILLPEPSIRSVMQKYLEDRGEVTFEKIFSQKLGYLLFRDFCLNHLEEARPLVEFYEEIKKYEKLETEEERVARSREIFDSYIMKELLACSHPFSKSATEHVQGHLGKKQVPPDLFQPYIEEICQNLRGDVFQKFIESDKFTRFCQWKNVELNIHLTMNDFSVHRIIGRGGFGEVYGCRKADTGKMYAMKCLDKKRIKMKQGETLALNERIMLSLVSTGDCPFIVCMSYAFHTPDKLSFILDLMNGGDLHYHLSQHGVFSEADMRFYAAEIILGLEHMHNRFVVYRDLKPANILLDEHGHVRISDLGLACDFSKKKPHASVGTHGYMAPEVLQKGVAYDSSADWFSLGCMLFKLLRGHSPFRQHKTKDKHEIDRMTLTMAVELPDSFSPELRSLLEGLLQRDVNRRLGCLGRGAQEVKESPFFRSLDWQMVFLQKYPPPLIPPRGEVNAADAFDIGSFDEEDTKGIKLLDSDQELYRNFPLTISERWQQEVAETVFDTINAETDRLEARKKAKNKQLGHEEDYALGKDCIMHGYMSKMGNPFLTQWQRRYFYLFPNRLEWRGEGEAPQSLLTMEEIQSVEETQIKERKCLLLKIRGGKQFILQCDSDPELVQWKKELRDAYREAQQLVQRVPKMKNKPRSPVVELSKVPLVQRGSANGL
Assay [11] has as its target Beta-2 adrenergic receptor (Homo sapiens, UniProt P07550). Kind of assay: beta2AR agonists driving receptor internalization, dose response, cell-based, FAP fluorogen, flow cytometry, cherry pick 1 (AID 588763). Format: functional. For orientation: A flow cytometer gives signals particle by particle.

Chain of Beta-2 adrenergic receptor (P07550 whole entry): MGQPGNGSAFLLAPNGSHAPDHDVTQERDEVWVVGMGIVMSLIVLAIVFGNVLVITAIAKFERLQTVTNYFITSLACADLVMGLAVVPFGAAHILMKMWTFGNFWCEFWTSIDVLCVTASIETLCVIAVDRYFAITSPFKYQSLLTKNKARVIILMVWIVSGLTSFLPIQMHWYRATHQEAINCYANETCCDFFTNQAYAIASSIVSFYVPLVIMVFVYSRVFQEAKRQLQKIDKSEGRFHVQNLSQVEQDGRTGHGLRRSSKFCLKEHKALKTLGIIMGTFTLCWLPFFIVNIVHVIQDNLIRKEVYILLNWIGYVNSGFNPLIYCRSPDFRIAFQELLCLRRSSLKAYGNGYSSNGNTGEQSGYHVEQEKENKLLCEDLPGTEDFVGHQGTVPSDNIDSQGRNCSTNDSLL
Chain of Guanyl-specific ribonuclease T1 (P00651 whole entry): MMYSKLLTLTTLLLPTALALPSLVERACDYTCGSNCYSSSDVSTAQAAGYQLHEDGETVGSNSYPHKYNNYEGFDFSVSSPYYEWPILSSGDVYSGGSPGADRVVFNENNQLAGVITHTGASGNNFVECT
Chain of FAD-linked sulfhydryl oxidase ALR (P55789 whole entry): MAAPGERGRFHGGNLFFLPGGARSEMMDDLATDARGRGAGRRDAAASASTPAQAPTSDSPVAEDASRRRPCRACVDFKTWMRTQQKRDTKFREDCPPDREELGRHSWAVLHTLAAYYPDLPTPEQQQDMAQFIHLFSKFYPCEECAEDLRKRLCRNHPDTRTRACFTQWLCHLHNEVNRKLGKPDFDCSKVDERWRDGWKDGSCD

For the molecule `O=S(=O)(Cc1cc(Cl)nc(-c2cccnc2)n1)c1ccccc1`, the figures for the 50% inhibitory concentration (IC50) in assay [1] and in assay [2] were 10.5 µM (active) and > 100 µM (active), respectively.

As for `N#Cc1ccc(CSc2nnc(NC(=O)c3ccc(O)nc3)s2)cc1`, the AC50 (in general, the concentration giving half of the maximal activity seen) in assay [3] was 0.679 µM (active). Also, the IC50 in assay [4] and in assay [5] was > 80 µM (inactive) each time.

For the molecule `CC(C)(C)c1ccc(/C=N/Nc2cccc(C(=O)O)c2)cc1`, the EC50 (commonly the concentration giving half of the maximal effect) in assay [6] was < 0.16 µM (active). In addition, the AC50 in [7] was 3.37 µM (active).

Consider `NC(=O)c1cc[n+](CC2=C(C(=O)O)N3C(=O)[C@@H](NC(=O)[C@@H](c4ccccc4)S(=O)(=O)[O-])[C@H]3SC2)cc1` [CEFSULODIN SODIUM], for which the IC50 (usually the concentration that inhibits the measured activity by half) in assay [8] was > 55.7 µM (not active); in [9] it was 1.69 µM (active). Moreover, the EC50 in assay [10] was 0.07 µM (active).

Take `CCCCN(CCCC)c1nc(OC)nc(-n2nnc(C(C)=O)c2C)n1`: in assay [11], the EC50 is 12.1 µM (inactive).

The record behind these values is ChEMBL document CHEMBL1201862, “PubChem BioAssay data set” (2004).
